According to ChEMBL document CHEMBL1201862, “PubChem BioAssay data set” (2004):
Where “and” joins values, the source holds several entries; their conditions need not be identical. Identical values can stand only once.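 A five-concentration, 48-hour dose response in 96-well plates underlies each endpoint, interpolated linearly between surrounding concentrations. The concentration for 50% growth inhibition is given as GI50.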 Calls of active or inactive are those of the source. Rule as the data show it: active = GI50 up to about 1.1 µM and inactive = higher.

Key:
Assay in all cases: growth of human tumour cells (NCI), 48 h
786-0 = system: 786-0
A498 = system: A498
A549 = system: A549
ACHN = system: ACHN
CAKI-1 = system: CAKI-1
CCRF-CEM = system: CCRF-CEM
DU-145 = system: DU-145
EKVX = system: EKVX
HCT-116 = system: HCT-116
HCT-15 = system: HCT-15
HL-60 = system: HL-60
HOP-62 = system: HOP-62
HOP-92 = system: HOP-92
HT-29 = system: HT-29
Hs-578T = system: Hs-578T
IGROV-1 = system: IGROV-1
K562 = system: K562
KM12 = system: KM12
LOX IMVI = system: LOX IMVI
M14 = system: M14
MCF7 = system: MCF7
MDA-MB-231 = system: MDA-MB-231
MDA-MB-435 = system: MDA-MB-435
MDA-N = system: MDA-N
MOLT-4 = system: MOLT-4
OVCAR-4 = system: OVCAR-4
OVCAR-5 = system: OVCAR-5
OVCAR-8 = system: OVCAR-8
PC-3 = system: PC-3
RPMI-8226 = system: RPMI-8226
RXF 393 = system: RXF 393
SF-268 = system: SF-268
SK-MEL-28 = system: SK-MEL-28
SK-MEL-2 = system: SK-MEL-2
SK-MEL-5 = system: SK-MEL-5
SK-OV-3 = system: SK-OV-3
SN12C = system: SN12C
SNB-19 = system: SNB-19
SR = system: SR
SW-620 = system: SW-620
TK-10 = system: TK-10
U-251 = system: U-251
UACC-257 = system: UACC-257
UACC-62 = system: UACC-62
COLO 205 = system: COLO 205
HCC 2998 = system: HCC 2998
Malme-3M = system: Malme-3M
NCI-H226 = system: NCI-H226
NCI-H23 = system: NCI-H23
NCI-H460 = system: NCI-H460
NCI/ADR-RES = system: NCI/ADR-RES
OVCAR-3 = system: OVCAR-3
SF-295 = system: SF-295
UO-31 = system: UO-31
NCI-H522 = system: NCI-H522
SF-539 = system: SF-539
SNB-75 = system: SNB-75
T47D = system: T47D

## CC(=O)Nc1oc(C)nc1C#N
786-0
  GI50: > 100 µM (inactive)
A498
  GI50: > 100 µM (inactive)
A549
  GI50: > 100 µM (inactive)
ACHN
  GI50: > 100 µM (inactive)
CAKI-1
  GI50: > 100 µM (inactive)
CCRF-CEM
  GI50: > 100 µM (inactive)
DU-145
  GI50: > 100 µM (inactive)
EKVX
  GI50: > 100 µM (inactive)
HCT-116
  GI50: > 100 µM (inactive)
HCT-15
  GI50: > 100 µM
HL-60
  GI50: > 100 µM (inactive)
HOP-62
  GI50: > 100 µM (inactive)
HOP-92
  GI50: > 100 µM (inactive)
HT-29
  GI50: > 100 µM (inactive)
Hs-578T
  GI50: > 100 µM (inactive)
IGROV-1
  GI50: > 100 µM (inactive)
K562
  GI50: > 100 µM (inactive)
KM12
  GI50: > 100 µM (inactive)
LOX IMVI
  GI50: > 100 µM (inactive)
M14
  GI50: > 100 µM (inactive)
MCF7
  GI50: > 100 µM (inactive)
MDA-MB-231
  GI50: > 100 µM (inactive)
MDA-MB-435
  GI50: > 100 µM (inactive)
MDA-N
  GI50: > 100 µM (inactive)
MOLT-4
  GI50: > 100 µM (inactive)
OVCAR-4
  GI50: > 100 µM (inactive)
OVCAR-5
  GI50: > 100 µM (inactive)
OVCAR-8
  GI50: > 100 µM (inactive)
PC-3
  GI50: > 100 µM (inactive)
RPMI-8226
  GI50: > 100 µM (inactive)
RXF 393
  GI50: > 100 µM (inactive)
SF-268
  GI50: > 100 µM (inactive)
SK-MEL-28
  GI50: > 100 µM (inactive)
SK-MEL-2
  GI50: > 100 µM (inactive)
SK-MEL-5
  GI50: > 100 µM (inactive)
SK-OV-3
  GI50: > 100 µM (inactive)
SN12C
  GI50: > 100 µM (inactive)
SNB-19
  GI50: > 100 µM (inactive)
SR
  GI50: > 100 µM (inactive)
SW-620
  GI50: > 100 µM (inactive)
TK-10
  GI50: > 100 µM (inactive)
U-251
  GI50: > 100 µM (inactive)
UACC-257
  GI50: > 100 µM (inactive)
UACC-62
  GI50: > 100 µM (inactive)

## CCOP(=O)(OCC)C(C)(CC)NC(=O)C(C(F)(F)F)C(F)(F)F (stereo not drawn)
786-0
  GI50: 40.4 µM (inactive) and 61.5 µM (inactive)
A498
  GI50: > 100 µM (inactive)
A549
  GI50: > 100 µM (inactive)
ACHN
  GI50: > 100 µM (inactive)
CAKI-1
  GI50: > 100 µM (inactive)
CCRF-CEM
  GI50: 22 µM (inactive) and 21.9 µM (inactive)
COLO 205
  GI50: > 100 µM (inactive)
DU-145
  GI50: > 100 µM (inactive)
EKVX
  GI50: > 100 µM (inactive)
HCC 2998
  GI50: > 100 µM (inactive)
HCT-116
  GI50: > 100 µM (inactive)
HCT-15
  GI50: > 100 µM
HOP-62
  GI50: > 100 µM (inactive)
HOP-92
  GI50: > 57 µM (inactive)
HT-29
  GI50: > 100 µM (inactive)
Hs-578T
  GI50: > 100 µM (inactive)
IGROV-1
  GI50: > 100 µM (inactive)
KM12
  GI50: 49.5 µM (inactive) and 58.2 µM (inactive)
LOX IMVI
  GI50: > 88.3 µM (inactive) and 72.3 µM (inactive)
M14
  GI50: > 100 µM (inactive)
MCF7
  GI50: > 31.6 µM (inactive) and 29.7 µM (inactive)
MDA-MB-435
  GI50: > 100 µM (inactive) and > 87.7 µM (inactive)
MDA-N
  GI50: > 100 µM (inactive)
MOLT-4
  GI50: > 49.3 µM (inactive) and 63.4 µM (inactive)
Malme-3M
  GI50: > 100 µM (inactive)
NCI-H226
  GI50: > 100 µM (inactive)
NCI-H23
  GI50: > 100 µM (inactive)
NCI-H460
  GI50: > 100 µM (inactive)
NCI/ADR-RES
  GI50: > 100 µM (inactive)
OVCAR-3
  GI50: > 100 µM (inactive)
OVCAR-4
  GI50: > 100 µM (inactive)
OVCAR-5
  GI50: > 100 µM (inactive)
OVCAR-8
  GI50: > 100 µM (inactive)
PC-3
  GI50: > 100 µM (inactive)
RPMI-8226
  GI50: 33.3 µM (inactive) and 21.9 µM (inactive)
RXF 393
  GI50: > 100 µM (inactive)
SF-268
  GI50: > 100 µM (inactive)
SF-295
  GI50: > 100 µM (inactive)
SK-MEL-28
  GI50: > 100 µM (inactive)
SK-MEL-2
  GI50: > 100 µM (inactive)
SK-MEL-5
  GI50: > 100 µM (inactive)
SK-OV-3
  GI50: > 100 µM (inactive)
SN12C
  GI50: > 100 µM (inactive)
SNB-19
  GI50: > 100 µM (inactive)
SR
  GI50: 63.4 µM (inactive) and 33.8 µM (inactive)
SW-620
  GI50: > 100 µM (inactive) and 92 µM (inactive)
TK-10
  GI50: 75.9 µM (inactive)
U-251
  GI50: > 100 µM (inactive)
UACC-257
  GI50: > 100 µM (inactive)
UO-31
  GI50: > 100 µM (inactive) and 97.3 µM (inactive)

## C=C1CC2CC(=O)C(O)C(C1)C2 (stereo not drawn)
786-0
  GI50: > 100 µM (inactive)
A498
  GI50: > 100 µM (inactive)
A549
  GI50: > 100 µM (inactive)
ACHN
  GI50: > 100 µM (inactive)
CAKI-1
  GI50: > 100 µM (inactive)
CCRF-CEM
  GI50: > 100 µM (inactive)
COLO 205
  GI50: > 100 µM (inactive)
DU-145
  GI50: > 100 µM (inactive)
EKVX
  GI50: > 100 µM (inactive)
HCC 2998
  GI50: > 100 µM (inactive)
HCT-116
  GI50: > 100 µM (inactive)
HCT-15
  GI50: > 100 µM
HL-60
  GI50: > 100 µM (inactive)
HOP-62
  GI50: > 100 µM (inactive)
HOP-92
  GI50: > 100 µM (inactive)
HT-29
  GI50: > 100 µM (inactive)
Hs-578T
  GI50: > 100 µM (inactive)
K562
  GI50: > 100 µM (inactive)
KM12
  GI50: > 100 µM (inactive)
LOX IMVI
  GI50: > 100 µM (inactive)
M14
  GI50: > 100 µM (inactive)
MCF7
  GI50: > 100 µM (inactive)
MDA-MB-435
  GI50: > 100 µM (inactive)
MDA-N
  GI50: > 100 µM (inactive)
MOLT-4
  GI50: > 100 µM (inactive)
NCI-H226
  GI50: > 100 µM (inactive)
NCI-H23
  GI50: 90.8 µM (inactive)
NCI-H460
  GI50: > 100 µM (inactive)
NCI-H522
  GI50: > 100 µM (inactive)
NCI/ADR-RES
  GI50: > 100 µM (inactive)
OVCAR-3
  GI50: > 100 µM (inactive)
OVCAR-5
  GI50: > 100 µM (inactive)
OVCAR-8
  GI50: > 100 µM (inactive)
RPMI-8226
  GI50: > 100 µM (inactive)
RXF 393
  GI50: > 100 µM (inactive)
SF-268
  GI50: > 100 µM (inactive)
SF-295
  GI50: > 100 µM (inactive)
SF-539
  GI50: > 100 µM (inactive)
SK-MEL-5
  GI50: > 100 µM (inactive)
SK-OV-3
  GI50: > 100 µM (inactive)
SN12C
  GI50: > 100 µM (inactive)
SNB-75
  GI50: 58.5 µM (inactive)
SR
  GI50: > 100 µM (inactive)
SW-620
  GI50: > 100 µM (inactive)
T47D
  GI50: 69 µM (inactive)
TK-10
  GI50: > 100 µM (inactive)
UACC-257
  GI50: > 100 µM (inactive)
UACC-62
  GI50: > 100 µM (inactive)
UO-31
  GI50: > 100 µM (inactive)
